According to patent US8394398B2 (Abbott Laboratories, priority 1997, dated 2013):

What was measured:
[1] = pharmacokinetics after a single intravenous dose in cynomolgus monkey; type: in vivo; details: single 2.5 mg/kg intravenous dose, blood, n=3
[2] = tested on: human coronary artery smooth muscle cells (hCaSMC); test: 3H-thymidine uptake proliferation assay, hCaSMC; type: cell-based; details: for effect on the antiproliferative activity of zotarolimus in hCaSMC: FIG. 12
Procedure: Experiments were performed to investigate interactions between zotarolimus and the corticosteroid dexamethasone. The effect of dexamethasone on the antiproliferative activity of zotarolimus in human coronary artery smooth muscle ([…]) and endothelial […] determined using an in vitro proliferation assay. The proliferation and migration of vascular smooth muscle cells into the vascular neointima is a characteristic pathologic response seen in restenotic lesions (A. Lafont and P. Libby, The smooth muscle cell: sinner or saint in restenosis and the acute coronary syndromes? […] As a result, in vitro assays which specifically measure the antiproliferative activity of candidate anti-restenotic compounds on human coronary artery smooth muscle and endothelial cells should predict potential anti-restenotic activity in vivo. The tritium incorporation assay is an accurate and sensitive method used in the art to determine cell number and proliferation. Compounds or combinations of compounds which attenuate growth factor-mediated human coronary artery smooth muscle cell […]) proliferation, as measured by the tritium incorporation assay in vitro, are candidate anti-restenotic agents. […] Cell proliferation was monitored by following incorporation of ^3H-thymidine into newly synthesized DNA of cells stimulated by serum and growth factors. Exponentially growing […] were seeded into 96-well flat bottom tissue culture plates at 5,000 cells/well (10,000 cells/well for […]). The cells were allowed to attach overnight. The growth medium was removed the following day and cells were washed twice with unsupplemented (basal) medium to remove traces of serum and growth factors. Basal medium (200 μl) was added to each well and the cells incubated in medium lacking growth factors and serum to starve and synchronize them in the G0 state. After starvation (48 hours for […] and 39 hours for […]) in medium lacking serum and growth factors, the cells were replenished with 200 μl supplemented medium in the absence or presence of drugs at the desired concentrations. […] After a 72-hour incubation period, 25 μl (1 μCi/well) of ^3H-thymidine (Amersham Biosciences) were added to each well. The cells were incubated at 37° C. for 16-18 hours to allow incorporation of ^3H-thymidine into newly synthesized DNA and the cells harvested onto 96-well plates containing bonded glass fiber filters using a cell harvester (Harvester 9600, TOMTEC). […] Controls included medium only, starved cells and cells in complete medium. Drug activity was established by determining the inhibition of ^3H-thymidine incorporation into newly synthesized DNA relative to cells grown in complete medium. […] The final IC50s are means of the 3-4 experiments. In these experiments, the x-axis represents the concentration of the drug being varied. For most of these curves that is zotarolimus alone and in combination with a fixed concentration of dexamethasone. Each graph contains a dexamethasone alone curve and a zotarolimus alone curve. The set of curves in each graph is generated by adding dexamethasone at a fixed concentration (1, 5, 10 or 25 nM) to various concentrations of zotarolimus (0, 0.04, 0.08, 0.8, 4, 8, 40 nM). Each curve represents the dose-response of zotarolimus (whose concentration is given on the x-axis) in the presence of the fixed concentration of dexamethasone given in the legend). […] The concentration eliciting a specific antiproliferative effect was determined using a 4-parameter equation (Equation 1). […]

[3] = tested on: human monocytes; test: cytokine production by LPS-stimulated human monocytes (ELISA); type: cell-based; details: for MCP-1 production by human monocytes in vitro: FIG. 10; for production of TNFα and IL-6 by human monocytes: FIGS. 10 and 11; for Maximal Inhibitory Activity, IL-6 / Maximal Inhibitory Activity, MCP-1 / Maximal Inhibitory Activity, TNF: Monocytes, 24 hours
Procedure: (§1) Experiments were performed to determine the effects of zotarolimus, sirolimus and dexamethasone on the production of TNFα, IL-6 and MCP-1 by activated human monocytes In addition to monocytes and macrophages two other key cell types are involved in the etiology of restenosis, arterial smooth muscle and endothelial cells. These cells are activated and produce cytokines in response to TNFα. […] The activation of cytokine production by human coronary artery smooth muscle and endothelial cells following TNFα treatment was determined by measuring interleukine-8 (IL-8), MCP-1 and IL-6 production. As shown by the results of the experiments described below, the ability of these compounds to inhibit the production of cytokines supports their use in combination as anti-restenotic agents since these cytokines play a role in the development of restenosis. […] After 24 hours, the supernatants were carefully collected and TNFα, IL-6 and MCP-1 levels determined by ELISA. Primary cultures of human coronary artery endothelial and smooth muscle cells were obtained from Cambrex and maintained as described by the vendor. […] After 24 hours the supernatants were removed and replaced with media containing TNFα (5 ng/ml) in the presence and absence of various concentrations of zotarolimus, dexamethasone or sirolimus. The cells were incubated for 24 hours and the supernatants carefully removed and frozen until measurement. Cytokine levels were measured in the supernatants by sandwich ELISA.

[4] = tested on: human coronary artery smooth muscle cells (hCaSMC); test: cytokine production by TNFα-treated human coronary artery smooth muscle cells (ELISA); type: cell-based; details: TNFα (5 ng/ml), 24 hours; for Maximal Inhibitory Activity, IL-6 / Maximal Inhibitory Activity, Il-8 / Maximal Inhibitory Activity, MCP-1: hCaSMC
Procedure: as §1

[5] = tested on: human coronary artery endothelial cells (hCaEC); test: cytokine production by TNFα-treated human coronary artery endothelial cells (ELISA); type: cell-based; details: TNFα (5 ng/ml), 24 hours
Procedure: as §1

[6] = accelerated in vitro elution from PC-1036 coated stents; type: physicochemical
[7] = tested on: human coronary artery endothelial cells (hCaEC); test: 3H-thymidine uptake proliferation assay, hCaEC; type: cell-based

AUC [1] [ng·h/mL]	Compound	MCP-1 production by human monocytes in vitro [3]	production of TNFα and IL-6 by human monocytes [3]	Maximal Inhibitory Activity, IL-6 [3]	Maximal Inhibitory Activity, MCP-1 [3]	Maximal Inhibitory Activity, TNF [3]	Maximal Inhibitory Activity, IL-6 [4]	Maximal Inhibitory Activity, Il-8 [4]	Maximal Inhibitory Activity, MCP-1 [4]	Maximal Inhibitory Activity, IL-6 [5]	Maximal Inhibitory Activity, Il-8 [5]	Maximal Inhibitory Activity, MCP-1 [5]	further results
5.59	COC1CC2CCC(C)C(O)(O2)C(=O)C(=O)N2CCCCC2C(=O)OC(C(C)CC2CCC(n3ccc(=O)cc3)C(OC)C2)CC(=O)C(C)C=C(C)C(O)C(OC)C(=O)C(C)CC(C)C=CC=CC=C1C (stereo not drawn) [Example 4-pyridone, 40-epi-N-[4′-pyridone]-rapamycin]												
2.55	40-epi-N-[2′-pyridone]-rapamycin [Example 2-pyridone]												
	C=CC[C@@H]1/C=C(\C)C[C@H](C)C[C@H](OC)[C@H]2O[C@@](O)(C(=O)C(=O)N3CCCC[C@H]3C(=O)O[C@H](/C(C)=C/[C@@H]3CC[C@@H](O)[C@H](OC)C3)[C@H](C)[C@@H](O)CC1=O)[C@H](C)C[C@@H]2OC [tacrolimus]												effect on the antiproliferative activity of zotarolimus in hCaSMC ([2]; tacrolimus 100 nM): increased the IC50 of zotarolimus; effect on the antiproliferative activity of zotarolimus in hCaSMC ([2]; tacrolimus 250 nM or greater, zotarolimus 4 nM): completely blocked the activity of zotarolimus
	CO[C@H]1C[C@@H]2CC[C@@H](C)[C@@](O)(O2)C(=O)C(=O)N2CCCC[C@H]2C(=O)O[C@H]([C@H](C)C[C@@H]2CC[C@@H](O)[C@H](OC)C2)CC(=O)[C@H](C)/C=C(\C)[C@@H](O)[C@@H](OC)C(=O)[C@H](C)C[C@H](C)/C=C/C=C/C=C/1C [Rapamycin]	dose-dependently inhibit MCP-1 production	not demonstrated	− (− indicates maximal inhibitory activity less than 50% of control)	+++ (+++ indicates maximal inhibitory activity of 75-100% of control)	− (− indicates maximal inhibitory activity less than 50% of control)	− (− indicates maximal inhibitory activity less than 50% of control)	− (− indicates maximal inhibitory activity less than 50% of control)	− (− indicates maximal inhibitory activity less than 50% of control)	− (− indicates maximal inhibitory activity less than 50% of control)	− (− indicates maximal inhibitory activity less than 50% of control)	− (− indicates maximal inhibitory activity less than 50% of control)	
	C[C@@H]1C[C@H]2[C@@H]3CCC4=CC(=O)C=C[C@]4(C)[C@@]3(F)[C@@H](O)C[C@]2(C)[C@@]1(O)C(=O)CO [Dexamethasone]	dose-dependently inhibit MCP-1 production	potently blocks the production of TNFα and IL-6	+++ (+++ indicates maximal inhibitory activity of 75-100% of control)	+ (+ indicates maximal inhibitory activity of 50-75% of control)	+++ (+++ indicates maximal inhibitory activity of 75-100% of control)	+ (+ indicates maximal inhibitory activity of 50-75% of control)	+ (+ indicates maximal inhibitory activity of 50-75% of control)	+ (+ indicates maximal inhibitory activity of 50-75% of control)	− (− indicates maximal inhibitory activity less than 50% of control)	− (− indicates maximal inhibitory activity less than 50% of control)	− (− indicates maximal inhibitory activity less than 50% of control)	IC50 ([2]; Homo sapiens, 3 h, read-out: hCaSMC IC50 Mean ± SEM): 9.3 nM; inhibition of hCaSMC proliferation ([2]; dexamethasone alone at or above 10 nM): N.D.* Not detectable: Concentrations of dexamethasone alone at or above 10 nM inhibit proliferation by greater than 50% preventing calculation of zotarolimus IC50's in these experiments.; burst release at the beginning of elution ([6]; stent with 10 μg/mm each drug, 5 μg/mm PC-1036 topcoat, 10 mM acetate buffer pH 4.0, 1% Solutol HS 15, 37° C., 24-hour profile): slightly larger burst release at the beginning than zotarolimus; effect on the elution profile of zotarolimus ([6]; zotarolimus alone vs in the presence of dexamethasone, same conditions): little effect on the elution profile of zotarolimus; block of hCaSMC IL-6 production [4]: 65.7%; block of hCaSMC IL-8 production [4]: 68.4%; block of hCaSMC MCP-1 production [4]: 57.2%; effect on proliferation of hCaEC ([7]; FIG. 13): does not affect the proliferation of hCaEC; IC50 ([7]; Homo sapiens, Endothelial cell, 3 h, read-out: hCaEC IC50 Mean ± SEM): > 10000 nM
